According to ChEMBL document CHEMBL1130938, “L-tryptophan urea amides as NK1/NK2 dual antagonists” (Bioorg Med Chem Lett, 1998):

These compounds were tested against T1, Substance-K receptor (Homo sapiens, UniProt P21452) (assay: Inhibition of cloned human NK2 (Neurokinin 2) receptor, stably expressed in chinese hamster ovary (CHO) cells was determined). Conditions: not given.
T1 sequence (P21452 whole entry): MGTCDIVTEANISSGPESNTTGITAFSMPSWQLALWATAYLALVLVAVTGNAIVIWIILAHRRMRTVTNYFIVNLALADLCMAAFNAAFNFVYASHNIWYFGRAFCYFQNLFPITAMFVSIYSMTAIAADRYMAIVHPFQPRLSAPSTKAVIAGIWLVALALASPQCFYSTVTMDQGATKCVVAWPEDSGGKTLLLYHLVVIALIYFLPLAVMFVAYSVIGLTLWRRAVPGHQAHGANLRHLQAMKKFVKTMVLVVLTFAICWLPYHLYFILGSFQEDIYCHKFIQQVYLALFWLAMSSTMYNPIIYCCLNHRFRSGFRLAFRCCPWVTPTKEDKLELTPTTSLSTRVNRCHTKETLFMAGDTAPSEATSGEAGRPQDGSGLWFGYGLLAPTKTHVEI
Type: cell-based

Compared with `CSN1CC2(CCN(C(=O)N[C@@H](COCc3ccccc3)C(=O)N(C)Cc3ccccc3)CC2)c2ccccc21`, `CSN1CC2(CCN(C(=O)N[C@@H](CCc3ccccc3)C(=O)N(C)Cc3ccccc3)CC2)c2ccccc21` is 1.6-fold lower in IC50: 258 nM for the first, 166 nM for the second.

`CC(=O)N[C@@H](Cc1c[nH]c2ccccc12)C(=O)OCc1cc(C(F)(F)F)cc(C(F)(F)F)c1` [L-732138] and `CSN1CC2(CCN(C(=O)N[C@@H](Cc3c[nH]c4ccccc34)C(=O)OCc3cc(C(F)(F)F)cc(C(F)(F)F)c3)CC2)c2ccccc21` cannot be ordered by IC50: > 5000 nM for the first, > 1000 nM for the second.

First: CSN1CC2(CCN(C(=O)N[C@@H](Cc3c[nH]c4ccccc34)C(=O)N(C)Cc3ccccc3)CC2)c2ccccc21
Second: CSN1CC2(CCN(C(=O)N[C@H](Cc3c[nH]c4ccccc34)C(=O)N(C)Cc3ccccc3)CC2)c2ccccc21
The IC50 of the first is 24-fold lower: 24 nM for the first, 577 nM for the second. The first is the more potent here.

Going from `CN(Cc1ccccc1)C(=O)[C@H](Cc1c[nH]c2ccccc12)NC(=O)N1CCC2(CCc3ccccc32)CC1` to `CCN(Cc1ccccc1)C(=O)[C@H](Cc1c[nH]c2ccccc12)NC(=O)N1CCC2(CCc3ccccc32)CC1`, the IC50 rises from 27 nM to 139 nM (5.1-fold). The first is the more potent here.

Going from `O=C(Nc1ccccc1)[C@H](Cc1c[nH]c2ccccc12)NC(=O)N1CCC2(CCc3ccccc32)CC1` to `O=C(NCc1ccccc1)[C@H](Cc1c[nH]c2ccccc12)NC(=O)N1CCC2(CCc3ccccc32)CC1`, the IC50 falls from 2100 nM to 14 nM (150-fold).

Going from `CSN1CC2(CCN(C(=O)N[C@@H](Cc3c[nH]c4ccccc34)C(=O)OCc3ccccc3)CC2)c2ccccc21` to `O=C(NCCc1ccccc1)[C@H](Cc1c[nH]c2ccccc12)NC(=O)N1CCC2(CCc3ccccc32)CC1`, the IC50 falls from 4500 nM to 211 nM (21-fold).

First: CC(=O)NC1(c2ccccc2)CCN(C(=O)N[C@@H](Cc2c[nH]c3ccccc23)C(=O)N(C)Cc2ccccc2)CC1
Second: CN(Cc1ccccc1)C(=O)[C@H](Cc1c[nH]c2ccccc12)NC(=O)N1CCC2(C=Cc3ccccc32)CC1
The IC50 of the first is 52-fold higher: 928 nM for the first, 18 nM for the second. The second is the more potent here.

First: CSN1CC2(CCN(C(=O)N[C@@H](Cc3c[nH]c4ccccc34)C(=O)N(C)Cc3cc(C)cc(C)c3)CC2)c2ccccc21
Second: CSN1CC2(CCN(C(=O)N[C@@H](Cc3c[nH]c4ccccc34)C(=O)N(C)Cc3cc(C(F)(F)F)cc(C(F)(F)F)c3)CC2)c2ccccc21
The IC50 of the first is 3-fold lower: 1400 nM for the first, 4200 nM for the second.

`CNC(=O)N[C@@H](Cc1c[nH]c2ccccc12)C(=O)OCc1cc(C)cc(C)c1` and `Cc1cc(C)cc(CN(C)C(=O)[C@H](Cc2c[nH]c3ccccc23)NC(=O)c2ccccc2)c1` cannot be ordered by IC50: > 5000 nM for the first, > 5000 nM for the second.

`CC(=O)NC1(c2ccccc2)CCN(CC[C@H](CN(C)C(=O)c2ccccc2)c2ccc(Cl)c(Cl)c2)CC1` [SAREDUTANT] was tested, and the IC50 was 0.13 nM.

What follows are compounds tested against T2, Substance-P receptor (Homo sapiens, UniProt P25103) (assay: (§1) Inhibition of cloned human NK1 (Neurokinin 1) receptor, stably expressed in chinese hamster ovary (CHO) cells was determined). Conditions: not given.
T2 sequence (P25103 whole entry): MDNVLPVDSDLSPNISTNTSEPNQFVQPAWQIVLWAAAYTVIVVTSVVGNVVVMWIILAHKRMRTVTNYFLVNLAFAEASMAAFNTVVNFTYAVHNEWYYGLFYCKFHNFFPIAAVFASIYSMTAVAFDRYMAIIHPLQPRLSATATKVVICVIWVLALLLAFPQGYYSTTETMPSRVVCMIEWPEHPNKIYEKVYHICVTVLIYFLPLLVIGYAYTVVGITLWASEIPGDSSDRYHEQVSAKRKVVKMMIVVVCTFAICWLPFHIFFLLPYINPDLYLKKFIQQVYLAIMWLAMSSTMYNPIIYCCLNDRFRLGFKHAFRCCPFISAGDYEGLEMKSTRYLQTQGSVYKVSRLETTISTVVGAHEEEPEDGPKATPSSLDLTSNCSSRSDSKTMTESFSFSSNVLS
Type: cell-based

Compared with `CSN1CC2(CCN(C(=O)N[C@@H](COCc3ccccc3)C(=O)N(C)Cc3ccccc3)CC2)c2ccccc21`, `CSN1CC2(CCN(C(=O)N[C@@H](CCc3ccccc3)C(=O)N(C)Cc3ccccc3)CC2)c2ccccc21` is 2.3-fold higher in IC50: 480 nM for the first, 1100 nM for the second.

Going from `CSN1CC2(CCN(C(=O)N[C@@H](Cc3c[nH]c4ccccc34)C(=O)N(C)Cc3ccccc3)CC2)c2ccccc21` to `CSN1CC2(CCN(C(=O)N[C@H](Cc3c[nH]c4ccccc34)C(=O)N(C)Cc3ccccc3)CC2)c2ccccc21`, the IC50 rises from 14 nM to 164 nM (12-fold).

First: CN(Cc1ccccc1)C(=O)[C@H](Cc1c[nH]c2ccccc12)NC(=O)N1CCC2(CCc3ccccc32)CC1
Second: CCN(Cc1ccccc1)C(=O)[C@H](Cc1c[nH]c2ccccc12)NC(=O)N1CCC2(CCc3ccccc32)CC1
The IC50 of the first is 4.3-fold lower: 56 nM for the first, 242 nM for the second.

Compared with `CSN1CC2(CCN(C(=O)N[C@@H](Cc3c[nH]c4ccccc34)C(=O)OCc3cc(C(F)(F)F)cc(C(F)(F)F)c3)CC2)c2ccccc21`, `CSN1CC2(CCN(C(=O)N[C@@H](Cc3c[nH]c4ccccc34)C(=O)N(C)Cc3cc(C(F)(F)F)cc(C(F)(F)F)c3)CC2)c2ccccc21` is 1.7-fold higher in IC50: 0.58 nM for the first, 1 nM for the second. The first is the more potent here.

Going from `CSN1CC2(CCN(C(=O)N[C@@H](Cc3c[nH]c4ccccc34)C(=O)OCc3ccccc3)CC2)c2ccccc21` to `O=C(NCc1ccccc1)[C@H](Cc1c[nH]c2ccccc12)NC(=O)N1CCC2(CCc3ccccc32)CC1`, the IC50 rises from 23 nM to 227 nM (9.9-fold). The first is the more potent here.

`CC(=O)NC1(c2ccccc2)CCN(C(=O)N[C@@H](Cc2c[nH]c3ccccc23)C(=O)N(C)Cc2ccccc2)CC1` and `CN(Cc1ccccc1)C(=O)[C@H](Cc1c[nH]c2ccccc12)NC(=O)N1CCC2(C=Cc3ccccc32)CC1` are within 1.5-fold of each other in IC50: 77 nM for the first, 68 nM for the second.

First: CSN1CC2(CCN(C(=O)N[C@@H](Cc3c[nH]c4ccccc34)C(=O)N(C)Cc3cc(C)cc(C)c3)CC2)c2ccccc21
Second: Cc1cc(C)cc(CN(C)C(=O)[C@H](Cc2c[nH]c3ccccc23)NC(=O)c2ccccc2)c1
The IC50 of the first is lower: 10 nM for the first, > 1100 nM for the second. The first is the more potent here.

First: O=C(NCCc1ccccc1)[C@H](Cc1c[nH]c2ccccc12)NC(=O)N1CCC2(CCc3ccccc32)CC1
Second: CC(=O)NC1(c2ccccc2)CCN(CC[C@H](CN(C)C(=O)c2ccccc2)c2ccc(Cl)c(Cl)c2)CC1 [SAREDUTANT]
The IC50 of the first is 2.4-fold lower: 332 nM for the first, 800 nM for the second. The first is the more potent here.

These compounds were tested against T2, Substance-P receptor (assay: as §1). Conditions: concentration not given here.
Type: cell-based

For `O=C(Nc1ccccc1)[C@H](Cc1c[nH]c2ccccc12)NC(=O)N1CCC2(CCc3ccccc32)CC1`, the inhibition was 39%.
